Test systems include Staphylococcus aureus; Aspergillus fumigatus; Pasteurella multocida; Klebsiella pneumoniae; Bibersteinia trehalosi.
Holding throughout (assay): ≥ marks a high value that may be exact or a test limit, other limits are often not marked, values filed in µg/mL are converted to µM
Experiment [1] has as its system Candida albicans ATCC 36232.
The subject of experiment [2] is Escherichia coli ATCC 2592.
The subject of experiment [3] is Staphylococcus epidermidis ATCC 12228.
For experiment [4], the system named is Bacillus subtilis ATCC 6633.
The test system of experiment [5] is Shigella flexneri ATCC 203.
Experiment [6] relates to Micrococcus luteus ATCC 9341.
In experiment [7] the test system is Pseudomonas aeruginosa ATCC 9027.
The subject of experiment [8] is Staphylococcus aureus ATCC 6538.
Experiment [9] deals with Corynebacterium diphtheriae ATCC 8024.
In experiment [10] the test system is Mannheimia haemolytica Serovar 1.
The test system of experiment [11] is Salmonella enterica subsp. arizonae.
Experiment [12] deals with Corynebacterium pseudotuberculosis ATCC 19410.
The test system of experiment [13] is Mannheimia haemolytica Serovar 6.
The subject of experiment [14] is Pseudomonas aeruginosa PAO1.
For experiment [15], the system named is Mannheimia haemolytica Serovar 2.

Converted amounts (≈) assume the structure as drawn.

Turning to `CC(C)[C@H](NC(=O)[C@H](CS)NC(=O)[C@@H](NC(=O)[C@H](CCCN=C(N)N)NC(=O)[C@H](CCCCN)NC(=O)CNC(=O)[C@H](CC(N)=O)NC(=O)[C@@H](N)CS)C(C)C)C(=O)N[C@@H](CS)C(N)=O` [CNGKRVCVC], the MIC in experiment [1] was ≥ 102 µM; in experiment [2] it was ≥ 102 µM; in [3] it was > 102 µM; against Staphylococcus aureus, > 102 µM; in [4] it was ≥ 102 µM; in experiment [5] it was ≥ 102 µM. For the same compound, the MIC was ≥ 102 µM in experiment [6], > 102 µM in experiment [7], > 102 µM in experiment [8] and ≥ 102 µM in experiment [9].
For `CC[C@H](C)[C@H](NC(=O)[C@H](Cc1cnc[nH]1)NC(=O)[C@@H](NC(=O)[C@@H](NC(=O)[C@H](CCCCN)NC(=O)[C@H](CCCN=C(N)N)NC(=O)[C@@H](NC(=O)[C@@H](NC(=O)[C@H](CCCN=C(N)N)NC(=O)[C@@H](N)CCCN=C(N)N)[C@@H](C)CC)[C@@H](C)CC)[C@@H](C)CC)[C@@H](C)CC)C(=O)N[C@H](C(=O)N[C@@H](CCCCN)C(N)=O)[C@@H](C)CC` [RRIIRKIIHIIK], the MIC against Aspergillus fumigatus is 17.1 µM (≈ 26.7 µg/mL); against Staphylococcus aureus it was > 12.8 µM; in [10], 12.8 µM (≈ 20 µg/mL); in experiment [11] it was 12.8 µM (≈ 20 µg/mL); in [12], 12.8 µM (≈ 20 µg/mL); in experiment [13], 4.3 µM (≈ 6.7 µg/mL). For the same compound, the MIC was 12.8 µM (≈ 20 µg/mL) against Pasteurella multocida; 1.09 µM (≈ 1.7 µg/mL) in experiment [14]; > 12.8 µM against Klebsiella pneumoniae; 6.67 µM (≈ 10.4 µg/mL) in experiment [15]; 12.8 µM (≈ 20 µg/mL) in the experiment with Bibersteinia trehalosi.

For the origin of these results see DBAASP.
